Measurements from patent US20200316062A1, “COMBINATIONS COMPRISING HISTONE DEACETYLASE INHIBITORS” (Karus Therapeutics Limited, priority 2016, published 2020).

Tests used:
Recombinant human HDAC6 = biological target: T1, Recombinant human HDAC6 (Homo sapiens, UniProt Q9UBN7); experiment: HDAC biochemical assay, acetylated AMC-labeled peptide substrate; details: read-out: IC50 (nM) HDAC 6
T1 construct: full length, MW=159 kDa; GST (N); made in house; host or cells: Sf9 insect cells (baculovirus)
T1 sequence (Q9UBN7 1-1215): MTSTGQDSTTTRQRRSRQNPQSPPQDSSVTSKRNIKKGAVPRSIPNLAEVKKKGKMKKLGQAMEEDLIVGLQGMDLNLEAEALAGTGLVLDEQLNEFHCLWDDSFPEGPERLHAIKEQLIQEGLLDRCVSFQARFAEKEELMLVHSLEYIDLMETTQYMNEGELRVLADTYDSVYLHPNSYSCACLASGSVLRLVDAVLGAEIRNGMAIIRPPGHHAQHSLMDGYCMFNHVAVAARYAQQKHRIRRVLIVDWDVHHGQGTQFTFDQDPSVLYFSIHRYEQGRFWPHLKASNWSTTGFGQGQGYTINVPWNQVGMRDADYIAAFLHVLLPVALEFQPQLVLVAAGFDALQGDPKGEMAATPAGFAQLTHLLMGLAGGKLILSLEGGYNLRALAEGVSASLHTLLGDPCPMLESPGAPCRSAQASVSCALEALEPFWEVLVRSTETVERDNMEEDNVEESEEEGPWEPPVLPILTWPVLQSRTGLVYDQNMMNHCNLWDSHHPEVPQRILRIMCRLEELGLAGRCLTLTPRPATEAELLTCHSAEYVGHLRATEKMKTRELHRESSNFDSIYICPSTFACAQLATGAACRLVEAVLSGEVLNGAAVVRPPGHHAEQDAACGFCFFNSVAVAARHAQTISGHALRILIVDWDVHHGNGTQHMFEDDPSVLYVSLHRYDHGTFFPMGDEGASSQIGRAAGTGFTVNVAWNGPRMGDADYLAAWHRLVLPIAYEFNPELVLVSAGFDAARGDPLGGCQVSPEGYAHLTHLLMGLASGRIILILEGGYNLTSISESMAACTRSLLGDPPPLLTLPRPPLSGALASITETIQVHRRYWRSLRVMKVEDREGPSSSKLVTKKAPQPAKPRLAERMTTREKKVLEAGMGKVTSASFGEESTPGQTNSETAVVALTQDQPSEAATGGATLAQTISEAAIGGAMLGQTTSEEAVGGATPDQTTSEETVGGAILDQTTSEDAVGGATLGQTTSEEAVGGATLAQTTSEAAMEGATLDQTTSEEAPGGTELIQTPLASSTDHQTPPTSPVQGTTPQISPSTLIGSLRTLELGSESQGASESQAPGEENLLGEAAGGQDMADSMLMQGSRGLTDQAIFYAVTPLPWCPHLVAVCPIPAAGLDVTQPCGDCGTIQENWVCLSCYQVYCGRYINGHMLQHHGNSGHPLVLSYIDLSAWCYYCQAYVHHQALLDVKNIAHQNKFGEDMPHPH
Method: Activity against all zinc-dependent HDACs 1 to 11 was assessed by using an acetylated AMC-labeled peptide substrate. The substrate RHKK(Ac)AMC was used for HDAC1, 2, 3, 6, 10 and 11; for HDAC8, the substrate used was RHKAcKAc. […] All assays were based on the AMC-labeled substrate and developer combination.
(§1) The protocol involved a two-step reaction: first, the substrate with the acetylated lysine side chain is incubated with a sample containing HDAC activity, to produce the deacetylated products, which are then digested in the second step by the addition of developer to produce the fluorescent signal proportional to the amount of deacetylated substrates.
Recombinant human HDAC6 (GenBank Accession No. BC069243), full length, MW=159 kDa, was expressed by baculovirus in Sf9 insect cells using an N-terminal GST tag.
(§2) Before use, 1 mg/mL BSA and DMSO are added.
Incubate for 2 hours at 30° C.
HDAC6: 0.3 ng/ul HDAC6 and 50 μM HDAC substrate are in the reaction buffer with 1% DMSO final. Incubate for 1 hours at 30° C.
(§3) Stage 1: Deacetylation of substrate by incubation of HDAC enzymes with compounds
(§4) Stage 2: Development by addition of Developer to digest the deacetylated substrate, and generate the fluorescent color; Detection: 360/460 Ex/Em

Human HDAC1 = biological target: T2, Human HDAC1 (Homo sapiens, UniProt Q13547); experiment: as above; details: read-out: IC50 (nM) HDAC 1
T2 construct: full length with C-terminal His-tag and C-terminal FLAG-tag; His-tag (C); FLAG-tag (C); made in house
T2 sequence (Q13547 whole entry): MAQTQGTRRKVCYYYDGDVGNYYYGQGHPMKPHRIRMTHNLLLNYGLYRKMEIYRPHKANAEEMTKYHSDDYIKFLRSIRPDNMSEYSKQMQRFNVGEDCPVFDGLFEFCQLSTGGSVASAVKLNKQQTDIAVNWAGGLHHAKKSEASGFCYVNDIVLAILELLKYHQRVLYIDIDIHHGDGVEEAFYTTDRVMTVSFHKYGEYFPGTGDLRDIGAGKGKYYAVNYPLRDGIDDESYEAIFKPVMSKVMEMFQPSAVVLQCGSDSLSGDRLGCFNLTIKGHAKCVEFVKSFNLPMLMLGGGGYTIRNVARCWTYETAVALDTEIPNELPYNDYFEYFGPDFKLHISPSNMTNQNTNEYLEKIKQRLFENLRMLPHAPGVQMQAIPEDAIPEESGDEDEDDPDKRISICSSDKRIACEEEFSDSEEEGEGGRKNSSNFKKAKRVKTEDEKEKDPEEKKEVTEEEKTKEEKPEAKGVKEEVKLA
Method: Activity against all zinc-dependent HDACs 1 to 11 was assessed by using an acetylated AMC-labeled peptide substrate. […] All assays were based on the AMC-labeled substrate and developer combination.
as §1
Human HDAC1 (GenBank Accession No. NM_004964), full length with C-terminal His-tag and C-terminal FLAG-tag, MW=56 kDa, expressed in baculovirus expression system.
as §2
Incubate for 2 hours at 30° C.
HDAC1: 0.3 ng/ul HDAC1 and 50 μM HDAC substrate are in the reaction buffer with 1% DMSO final. Incubate for 1 hour at 30° C.
as §3, §4

[1] = Clinical signs and weight in the tumour growth delay study
Text: (§5) Male SCID mice were subcutaneously implanted with RPM18226 multiple myeloma cells. Once tumours were established (volume of ˜130 mm) treatment was commenced.
(§6) Animals were housed in IVC cages (5 per cage) with individual mice identified by tail mark. All animals were allowed free access to a standard certified commercial diet and sanitised water during the study.
(§7) RPMI cells (1×10^7 in matrigel) were implanted subcutaneously into the rear dorsum of male SCID mice using a 25-gauge needle. When tumours were 100-150 mm^3 animals were randomly assigned to treatment groups.

[2] = tested on: PD-L1-expressing HT29 colorectal adenocarcinoma cells, primary stromal fibroblasts and PBMCs; experiment: Tumour microenvironment (TME) model system, study KRS018-01-b (DiscoverX); format: cell-based; details: 2.5 to 10 μM; SAg stimulation 48 h; dose-dependent
Method: Test compounds dissolved in DMSO were profiled in a commercially-available tumour microenvironment (TME) model system consisting of PD-L1-expressing HT29 colorectal adenocarcinoma cells, primary stromal fibroblasts and PBMCs in which immune cel responses are suppressed by the presence of the cancer cells. Co-cultured cells were exposed to 2.5, 5, 10, 20 μM of test compound or DMSO as a control and stimulated with SAg for 48 h. The activity profile in the co-culture system was determined using ELISA endpoint assays to detect modulation of protein markers relevant to immune tolerance, inflammation, angiogenesis and matrix remodelling, and sulforhodamine B (SRB) and alamar blue assays to measure the viability of adherent colorectal adenocarcinoma cells and fibroblasts, and PBMCs, respectively.

acetylated tubulin = experiment: Western blot analysis of tumour tissue; format: in vivo, male SCID mice; details: tumour tissue removed from treated animals
RPMI8226 tumours = experiment: Tumour growth delay study in male SCID mice bearing RPMI8226 tumours; format: in vivo
Text: as §5, §6, §7

[3] = Group 2: Bortezomib 0.5 mg/kg i.v. twice weekly

SMILES: CNc1cc(-c2ccnc(N(Cc3ccc(C(=O)NO)cc3)c3cnccn3)c2)ccn1 [Example TT, N-hydroxy-4-({[2′-(methylamino)-[4,4′-bipyridine]-2-yl](pyrazin-2-yl)amino}methyl)benzamide]
- IC50 (Recombinant human HDAC6): ≤ 500 nM
- IC50 (Human HDAC1): 1000 to 10000 nM

SMILES: O=C(NO)c1ccc(CN(c2cnccn2)c2cnccn2)cc1 [Example GG, 4-{[Bis(pyrazin-2-yl)amino]methyl}-N-hydroxybenzamide]
- weight change during the study ([1]; bortezomib combinations): no significant weight change
- levels of secreted granzyme-B, IFNγ, IL-10, IL-17A, IL-2, IL-6 and TNFα [2]: increased
- expression of acetylated tubulin in tumour tissue (acetylated tubulin): increased expression
- control of tumour (RPMI8226 tumours; Group 4 and 5 (with bortezomib), after 8 days of treatment): significant control of tumour

SMILES: O=C(NO)c1ccc(CN(c2cnccn2)c2cc(-c3ccncc3)ccn2)cc1 [Example UU, 4-[({[4,4′-bipyridine]-2-yl}(pyrazin-2-yl)amino)methyl]-N-hydroxybenzamide]
- IC50 (Recombinant human HDAC6): ≤ 500 nM
- IC50 (Human HDAC1): 1000 to 10000 nM

SMILES: CC(C)C[C@H](NC(=O)[C@H](Cc1ccccc1)NC(=O)c1cnccn1)B(O)O [Bortezomib]
- Group mean at day 26 (weight, clinical signs) [1, 3]: 98.5
- % T/C value versus vehicle (RPMI8226 tumours; [3]): 67.8%
- Mean tumour volume, Group mean at day 19 (RPMI8226 tumours; [3]): 984 mm³
